Key:
[1] = molecular target: T1, PLA2 (Sus scrofa, UniProt P00592); experiment: PLA2 catalyzed hydrolysis of mixed micelles of POPC with bile salts; format: biochemical, pig; settings: 1 mM POPC, 0.7 mole fraction bile salt
T1 construct: made in house
Procedure: (§1) Aqueous dispersion of phospholipid was sonicated in a bath type sonicator. Virtually transparent suspension was annealed for at least 4 hours at room temperature before use. Reaction progress for the PLA2 catalyzed hydrolysis of sonicated DMPC (1 mM) vesicles was measured by pH-stat titration (Radiometer) with 1 mM 2-aminopropanediol in 4 ml reaction buffer containing 5 mM CaCl2 for DMPC (or 0.5 mM for DMPM), 1 mM NaCl, and 0.1 mM EDTA at pH 8.0 and 24° C. in the nitrogen purged closed atmosphere. Reaction was initiated by adding 0.1 μg enzyme in 1-10 μl solution. The pH stat method was also used for monitoring the rate of hydrolysis of DMPM (0.4 mM) vesicles in the presence of polymyxin [27-29], or of the mixed-micelles of POPC with bile salts in 1:2 ratio [13, 30].

[2] = molecular target: PLA2 K10M (Sus scrofa, UniProt P00592, K32M); experiment: Bile salt binding by Trp emission, K10M PLA2; parameters: species or system pig; settings: read-out: KEB
Procedure: (§2) Fluorescence emission spectrum or time course of the intensity change from tryptophan or the resonance energy transfer probe TMA-DPH were measured in the ratio mode on SLM-Aminco AB2 in a 1 cm cuvette [31, 32] in 1.6 ml stirred buffer containing 1 or 2 μM PLA2 in 10 mM Tris, 5 mM CaCl2 and 20 mM NaCl at pH 8.0 and 24° C. The slit-widths were 4 nm with excitation at 280.
(§3) As shown in [45], the binding of decylsulfate to the R site is accompanied by a modest increase in the emission intensity from Trp-3. […] As summarized in Table 2, the value of KEB depends on the position of Trp, although Hill coefficient remains 1. […] Note that KEB for the EB complex of ΔPLA2 is about 7-fold larger than that for PLA2.

[3] = test system: Naja venom PLA2; format: biochemical, Naja melanoleuca
Procedure: as §1

[4] = molecular target: T2, (62-66)-loop deleted pig pancreatic IB ΔPLA2 (Sus scrofa, UniProt P00592, DEL84-88); experiment: Hydrolysis of DMPC vesicles by (62-66)-loop deleted ΔPLA2 with added bile salt; format: biochemical
T2 construct: made in house
Procedure: as §1

[5] = molecular target: T3, human pancreatic IB PLA2 (Homo sapiens, UniProt P04054); experiment: Hydrolysis of DMPC vesicles by human IB PLA2 with added bile salt; format: biochemical; settings: 1 mM DMPC
T3 construct: gift of Dr. Suren Tatulian (Orlando, Fla.)
Procedure: as §1

[6] = molecular target: T4, PLA2 K53W/W3F (Sus scrofa, UniProt P00592, R75W/W25F); experiment: Bile salt binding by Trp emission, K53W/W3F PLA2; parameters: species or system pig; settings: read-out: KEB
T4 construct: made in house
Procedure: as §2, §3

T1 sequence (P00592 23-146): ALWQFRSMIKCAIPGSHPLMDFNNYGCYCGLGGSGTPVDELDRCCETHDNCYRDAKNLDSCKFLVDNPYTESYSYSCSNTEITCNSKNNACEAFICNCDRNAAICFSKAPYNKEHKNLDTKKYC
T4 sequence (P00592 23-146 W25F/R75W): as the sequence (P00592 23-146) above, with W3F, R53W counted along it
T3 sequence (P04054 23-148): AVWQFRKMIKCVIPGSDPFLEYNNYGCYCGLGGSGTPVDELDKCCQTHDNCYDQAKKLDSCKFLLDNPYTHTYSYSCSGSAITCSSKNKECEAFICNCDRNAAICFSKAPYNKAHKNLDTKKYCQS
T2 sequence (P00592 with tags, fused parts or gaps DEL84-88): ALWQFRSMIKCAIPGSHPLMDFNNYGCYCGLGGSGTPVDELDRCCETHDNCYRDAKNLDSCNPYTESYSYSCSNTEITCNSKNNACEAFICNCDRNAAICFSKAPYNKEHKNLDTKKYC
Sequence of PLA2 K10M (P00592 whole entry K32M): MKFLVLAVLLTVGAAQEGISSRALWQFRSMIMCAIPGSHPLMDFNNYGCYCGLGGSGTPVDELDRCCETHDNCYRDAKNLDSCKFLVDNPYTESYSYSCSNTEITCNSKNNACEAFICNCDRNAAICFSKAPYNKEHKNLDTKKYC

## C[C@H](CCC(=O)NCCS(=O)(=O)O)[C@H]1CC[C@H]2[C@@H]3[C@H](O)C[C@@H]4C[C@H](O)CC[C@]4(C)[C@H]3CC[C@]12C [TCDOC, taurochenodeoxycholate]
[1]
  initial rate of hydrolysis of POPC in mixed micelles: 15 s⁻¹
[2]
  Kd: 8 µM
[3]
  rate lowering effect with Naja venom enzyme: not observed
[4]
  rate lowering effect with ΔPLA2 mutant: not observed
[5]
  effect on rate of hydrolysis of DMPC vesicles by human pancreatic IB PLA2: virtually no rate increase
[6]
  Kd: 15 µM
